Reference: patent publication US9993002B2, “1,2,3-thiadiazol-5yl-urea derivatives, use thereof for regulating plant senescence and preparations containing these derivatives” (USTAV EXPERIMENTALNI BOTANIKY AV CR, V.V.I., priority 2014, dated 2018)

Assays:
[1] = system: Arabidopsis thaliana (wild-type Col-0); assay: Root growth and lateral root formation of Arabidopsis; assay type: in vivo; details: 10 nM; for Lateral root number / Primary root lenght: two weeks after transfer
Description: To investigate in vivo effect of the new derivatives on the root growth and development, seeds of Arabidopsis thaliana (wild-type Col-0) were surface sterilized and sown on vertical plates on half-strength Murashige-Skoog medium (supplied with 0.1% sucrose and 6 g/L phytagel) containing 10 nM BAP or 10 nM 1,2,3-thiadiazol-5-yl-urea derivative, or 0.01% DMSO (solvent control). After vernalization (4 days in the dark, 4° C.) plates were transferred into the growth chamber (22° C., 16/8 light/dark). Two weeks after transfer, seedlings were photographed and root elongation and lateral root formation was scored using Scion image software (Scion Corp., Frederick, Md., USA). At least 40 plants were measured for each treatment.

[2] = Toxicity towards human skin fibroblasts (Calcein AM assay); assay type: cell-based
Description: Cytotoxicity of the compounds to human skin fibroblasts (BJ cell line) was determined in a standard Calceinovém AM test. Cells were maintained in plastic tissue culture flasks and grown in Dulbecco's modified Eagle's medium for cell culture (DMEM) at 37° C. in 5% CO2 and 100% humidity. Cells were placed into 96-well microtiter plates (Nunc, Denmark) and after 12 hours pre-incubation, the tested compound was added to a final concentration ranging from […]. Cells were incubated for 72 hours. At the end of incubation period Calcein AM was added in PBS to a final concentration of […]. After 1 hour of incubation fluorescence was measured at 485/538 nm (ex/em wavelength) using Fluoroskan Ascent (Labsystems, Finland). IC50 values (the concentration causing reduction of calcein AM conversion to 50%) were calculated from the curves obtained. All experiments were repeated four times with a maximum deviation of 15%. Due to the limited solubility of substances in water, all the tested compounds were dissolved in DMSO and diluted with water to a final concentration.

[3] = system: detached leaf segments of Triticum aestivum cv. Hereward; assay: Senescence bioassay on wheat leaf segments in dark/light conditions; details: foliar, 168 h, read-out: Senescence bioassay (IC50)
Description: (§1) Seeds of winter wheat, Triticum aestivum cv. Hereward, were washed under running water for 24 hours and then sown on perlite soaked with Hogland's solution. They were placed in the growth chamber at 25° C. with a 16/8 h light period at 50 μmol·m^−2·s^−1. After 7 days, the first leaf was fully developed and the second leaf had started to grow. A tip section of the first leaf, approximately 4 cm long, was removed from 4 seedlings and trimmed slightly to a combined weight of 100 mg. The basal ends of the four leaf tips were placed into the 96-wells plate containing 150 μL of the tested derivative solution each. The entire plate was inserted into a plastic box lined with paper tissues soaked in distilled water to prevent leaf sections from drying out. After 96 h incubation in the dark at 25° C., the leaves were removed and chlorophyll extracted by heating at 80° C. for 10 min in 5 mL of 80% ethanol (v/v). The sample volume was then restored to 5 mL by the addition of 80% ethanol (v/v). The absorbance of the extract was recorded at 665 nm. In addition, chlorophyll extracts from fresh leaves and leaf tips incubated in deionised water were measured. The results are means of five replicates and the entire test was repeated at least twice. […] The compounds to be tested were dissolved in dimethylsulfoxide (DMSO) and the solution brought up to 10^−3 M with distilled water. […] The IC50 values were determined for standard (BAP) and novel tested compounds.
The ability of the novel compounds to retard chlorophyll degradation in detached wheat leaves was tested also in the light conditions. The experiment was performed as described in Example 7 with modifications as follows—the incubation of the leaves with the compounds was done in the dark/light conditions 8/16 (light—100 μmol·m^−2·s^−1) at 22° C. for 7 days. […] The newly prepared substituted 1,2,3-thiadiazol-5-yl urea derivatives of the invention are much stronger anti-senescent compounds in comparison to the BAP in retarding senescence under optimal (dark/light) conditions.

[4] = system: detached leaf segments of Triticum aestivum cv. Hereward; assay: Senescence bioassay on wheat leaf segments in dark conditions; details: dark, 96 h, 25° C., chlorophyll absorbance 665 nm, read-out: Senescence bioassay (IC50)
Description: as §1

[5] = system: detached leaves of Triticum aestivum cv. Hereward; assay: Membrane lipid peroxidation (MDA, TBA method) in detached wheat leaves in the dark; details: for MDA: four days in the dark
Description: A typical symptom associated with senescence as a direct consequence of increased reactive oxygen species is membrane lipid peroxidation which produces malondialdehyde (MDA). Therefore the levels of MDA, a decomposition product of lipid peroxidation, were measured in detached wheat leaves that were exposed to the prepared novel derivatives or BAP for four days in the dark as described in Example 7. MDA levels were measured using a thiobarbituric acid (TBA) method. In detail, 100 mg of fresh plant material was homogenized by high speed shaking in a ball mill (MM301, Retsch, Germany) with 1 mL of 70% methanol. The crude extract was centrifuged at 10,000×g for 5 min, and 100 μL aliquot of supernatant was vortexed with 100 μL of 0.5% (w/v) TBA containing 0.1% (w/v) trichloroacetic acid, and the resulting solution was then incubated for 30 min at 95° C. The samples were quickly cooled on ice and centrifuged for 5 min at 1000 g. The absorbance of supernatant was measured at 532 nm with background subtraction at 600 nm and the amount of MDA-TBA complex was calculated from the coefficient of absorbance 155 mM^−1 cm^−1.

wheat leaves = assay: Ethylene production (defoliating activity) assay; design: species or system Triticum aestivum; details: 10 μM; for Ethylene produced: 96 h in the dark at 25° C., control 270 (±15)
Description: We investigated the effect of the compounds of the invention on ethylene production in wheat leaves. The leaves were obtained as described in Example 8, placed in 5 mL glass vials and immersed at 10 μM solutions of tested compounds of the invention or TDZ. Distilled water was used as a control treatment. After 96 h incubation in the dark at 25° C., 1 mL of air was taken from the vials and content of ethylene in it was determined using gas chromatography with the flame ionization detector (GC-FID) method described by Fišerová et al. (Fišerová H, Kula E, Klemš M, Reinöhl V (2001) Phytohormones as indicators of the degree of damage in birch (Betula pendula). Biológia 56: 405-409).

[6] = dark/light 8/16, 22° C., 7 days

Molecule | Lateral root number [1] | Primary root lenght [1] | CC50 at 72 h [2] [µM] | IC50 [3, 6] [µM] | IC50 ([4]; Triticum aestivum, foliar) [µM] | MDA [5] | Ethylene produced (wheat leaves) | further results
C/C(=C\CNC(=O)Nc1cnns1)CO [Compound 20, 1-((E)-4-hydroxy-3-methyl-but-2-enyl)-3-[1,2,3]thiadiazol-5-yl-urea] | 11 (±6) | 32 (±9) mm | > 100 | 0.61 | 12.6 | 15.8 (±0.7) nmol/g FW | 254 (±22) nL/g FW | effect on ethylene evolution compared to control (in words) (wheat leaves; 96 h): inhibition of ethylene evolution
C#CCNC(=O)Nc1cnns1 [Compound 55, 1-prop-2-ynyl-3-[1,2,3]thiadiazol-5-yl-urea] | 15 (±8) | 40 (±10) mm | > 100 | – | 22 | 14.1 (±1.1) nmol/g FW | – | –
CSCCCCCNC(=O)Nc1cnns1 [Compound 42, 1-(5-methylthio-pentyl)-3-[1,2,3]thiadiazol-5-yl-urea] | – | – | – | – | 10.5 | – | – | –
COCC(C)NC(=O)Nc1cnns1 (stereo not shown) [Compound 28, 1-(2-methoxy-1-methyl-ethyl)-3-[1,2,3]thiadiazol-5-yl-urea] | 16 (±7) | 41 (±13) mm | > 100 | 0.43 | 8.6 | 13.9 (±0.9) nmol/g FW | 246 (±12) nL/g FW | effect on ethylene evolution compared to control (in words) (wheat leaves; 96 h): inhibition of ethylene evolution
O=C(Nc1ccccc1)Nc1cnns1 [TDZ, thidiazuron, reference compound] | 2.1 (±2) | 10 (±4) mm | – | – | – | – | 628 (±45) nL/g FW | IC50 [3]: 1.1 µM; elevation of ethylene production compared to untreated control (wheat leaves; 96 h): 133%; times higher production of ethylene than the novel tested compounds (wheat leaves; 96 h): at least 5 times
COCCCNC(=O)Nc1cnns1 [Compound 7, 1-(3-methoxy-propyl)-3-[1,2,3]thiadiazol-5-yl-urea] | 14 (±10) | 40 (±10) mm | > 100 | 0.4 | 11.4 | 14.4 (±0.8) nmol/g FW | 312 (±18) nL/g FW | –
COCCCCCCNC(=O)Nc1cnns1 [Compound 10, 1-(6-methoxy-hexyl)-3-[1,2,3]thiadiazol-5-yl-urea] | – | – | – | – | 45 | – | – | –
O=C(NCCCS)Nc1cnns1 [Compound 35, 1-(3-thio-propyl)-3-[1,2,3]thiadiazol-5-yl-urea] | – | – | – | – | – | – | – | IC50 [4]: 12 µM
1-(3,4-dihydro-2H-pyran-2-yl-methyl)-3-[1,2,3]thiadiazol-5-yl-urea [Compound 82] | – | – | – | – | – | – | – | IC50 [4]: 25 µM
O=C(NCCS)Nc1cnns1 [Compound 34, 1-(2-thio-ethyl)-3-[1,2,3]thiadiazol-5-yl-urea] | – | – | – | – | – | – | – | IC50 [4]: 18 µM
COCCCCNC(=O)Nc1cnns1 [Compound 8, 1-(4-methoxy-butyl)-3-[1,2,3]thiadiazol-5-yl-urea] | – | – | – | – | 25.5 | – | – | –
O=C(NCCCO)Nc1cnns1 [Compound 2, 1-(3-hydroxy-propyl)-3-[1,2,3]thiadiazol-5-yl-urea] | 12 (±6) | 39 (±9) mm | > 100 | 0.31 | 9.1 | 16.4 (±1.6) nmol/g FW | 293 (±21) nL/g FW | –
O=C(NCCCCCCBr)Nc1cnns1 [Compound 74, 1-(6-bromo-hexyl)-3-[1,2,3]thiadiazol-5-yl-urea] | – | – | – | – | – | – | – | level of membrane lipid peroxidation during dark senescence reduced to ([5]; compared to untreated control): 50.2%
COCCCCCNC(=O)Nc1cnns1 [Compound 9, 1-(5-methoxy-pentyl)-3-[1,2,3]thiadiazol-5-yl-urea] | – | – | – | – | 31 | – | – | –
C=CCNC(=O)Nc1cnns1 [Compound 50, 1-Allyl-3-[1,2,3]thiadiazol-5-yl-urea] | 14 (±10) | 42 (±12) mm | > 100 | 0.25 | 7.1 | 17.4 (±1.3) nmol/g FW | 279 (±18) nL/g FW | –
CC(O)CNC(=O)Nc1cnns1 (stereo not shown) [Compound 25, 1-(2-Hydroxy-propyl)-3-[1,2,3]thiadiazol-5-yl-urea] | 12 (±8) | 35 (±0.8) mm | > 100 | 0.1 | 3.5 | 12.6 (±0.83) nmol/g FW | 281 (±31) nL/g FW | –
COC(CNC(=O)Nc1cnns1)OC [Compound 16, 1-(2,2-dimethoxy-ethyl)-3-[1,2,3]thiadiazol-5-yl-urea] | 19 (±9) | 45 (±9) mm | > 100 | 0.16 | 2.9 | 11.6 (±1.2) nmol/g FW | 267 (±23) nL/g FW | –
1-(thiophen-2-yl-methyl)-3-[1,2,3]thiadiazol-5-yl-urea [Compound 76] | – | – | – | – | – | – | – | IC50 [4]: 32 µM
1-(thiophen-2-yl-methyl)-3-[1,2,3]thiadiazol-5-yl-urea [Compound 78] | – | – | – | – | – | – | – | IC50 [4]: 45 µM
O=C(NCCO)Nc1cnns1 [Compound 1, 1-(2-hydroxy-ethyl)-3-[1,2,3]thiadiazol-5-yl-urea] | – | – | – | – | 26 | – | – | –
c1ccc(CNc2ncnc3nc[nH]c23)cc1 [6-benzylaminopurine (BAP), 6-benzylaminopurine, reference compound] | 3.6 (±2) | 15 (±5) mm | – | 123 | 155 | 19.1 (±1.7) nmol/g FW | – | root development (in words) [1]: severely and significantly retarded; effect on peroxidation of membrane lipids (in words) ([5]; compared to untreated control): does not decrease the peroxidation of membrane lipids significantly
CC(C)=CCNC(=O)Nc1cnns1 [Compound 21, 1-(3-methyl-but-2-enyl)-3-[1,2,3]thiadiazol-5-yl-urea] | – | – | – | – | 97 | – | – | –
CSCCNC(=O)Nc1cnns1 [Compound 39, 1-(2-methylthio-ethyl)-3-[1,2,3]thiadiazol-5-yl-urea] | – | – | – | – | 3.1 | – | – | –
